Data set [1] can be described thus: Test Example 4: acute toxicity by oral administration in male mice (Litchfield-Wilcoxon). Set-up: unit not given here. Particulars: mouse, in vivo, mortality on the seventh day. Here is the method:
Compounds of this invention were tested on male mice for acute toxicity by oral administration.

In data set [2] the test system is tobacco cutworm (Spodoptera litura). Nature of the data set: Test Example 1: mortality of third-instar larvae of tobacco cutworm on cabbage, 3 days. To be noted: 72 h. The data set is classed as in vivo. Here is the method: Ten third-instar larvae of tobacco cutworm (Spodoptera litura) were placed on a cabbage (one-month-old seedling) planted in a pot, and a 50% emulsion of the compound to be tested was diluted to a specified concentration and applied to the leaves of the plant to fully wet them. The test compound of each specified concentration was tested on two pots.

Data set [3] relates to green rice leafhopper (Nephotettix cincticeps). Nature of the data set: Test Example 2: mortality of female adults of green rice leafhopper on paddy rice, 3 days. Type of data set: in vivo. To be noted: 72 h. Here is the method: An emulsion of specified concentration was prepared from a 50% wettable powder of the compound to be tested and applied to the leaves of paddy rice (one-month-old seedlings) planted in a pot to fully wet the leaves. After the emulsion had been dried, the pot was covered with a net cage, into which 10 female adults of green rice leafhopper (Nephotettix cincticeps) were released. The compound of each specified concentration was tested on two pots.

Another data set deals with warm-blooded animals. To be noted: known compounds, background; cited from earlier work.
Data set [4] has as its system mites, eelworms and other agricultural and forestry noxious insects and household noxious insects. To be noted: known compounds, background; cited from earlier work.
Where [5] appears, read: 125 ppm active ingredient, 3 days, read-out: Mortality.
The mark [6] stands for this setting: 250 ppm active ingredient, 3 days, read-out: Mortality.
Where [7] appears, read: 500 ppm active ingredient, 3 days, read-out: Mortality.
The mark [8] stands for this setting: 1000 ppm active ingredient, 3 days, read-out: Mortality.
[9] abbreviates: 200 ppm active ingredient, 3 days, read-out: Mortality.
The mark [10] stands for this setting: 400 ppm active ingredient, 3 days, read-out: Mortality.
Where [11] appears, read: 800 ppm active ingredient, 3 days, read-out: Mortality.

Like-named read-outs stand apart in the source and are kept apart here.

Broadly, the mortality is the share of the test organisms that died. Regarding `COCCN(CC#N)SN(C)C(=O)Oc1cccc2c1OC(C)(C)C2` [Example 5], the LD50 at 168 h in data set [1] came out at 68000. Further, in data set [2], the mortality at 125 ppm stood at 50%, the mortality at 250 ppm was 70%, the mortality at 500 ppm is 80% and the mortality at 1000 ppm worked out at 90%. In data set [3], this compound showed a mortality at 200 ppm of 70%, a mortality at 400 ppm of 90% and a mortality at 800 ppm of 100%.
On to `COCCN(CC(=O)OC)SN(C)C(=O)Oc1cccc2c1OC(C)(C)C2` [Example 4], for which the LD50 at 168 h in data set [1] was 90000. In data set [2], this compound yielded a mortality at 125 ppm of 45%, a mortality at 250 ppm of 65%, a mortality at 500 ppm of 80% and a mortality at 1000 ppm of 90%. In addition, in data set [3], the mortality at 200 ppm was 75%, the mortality at 400 ppm was determined as 95% and the mortality at 800 ppm was 100%.
`COCCN(CCC#N)SN(C)C(=O)Oc1cccc2c1OC(C)(C)C2` [Example 2, 2,3-dihydro-2,2-dimethylbenzofuran-7-yl N-[N-(2-methoxyethyl)-N-cyanoethylaminosulfenyl]N-methyl-carbamate]: in data set [1], the LD50 at 168 h worked out at 98000. In data set [2], this compound gave a mortality at 125 ppm of 40%, a mortality at 250 ppm of 55%, a mortality at 500 ppm of 70% and a mortality at 1000 ppm of 85%. In data set [3], the mortality at 200 ppm turned out to be 65%, the mortality at 400 ppm came to 85% and the mortality at 800 ppm is 100%.
For `CNC(=O)ON=C(C)SC` [Control*, S--methyl N--[(methylcarbamoyl)oxy]thioacetimidate], the “toxicity to warm-blooded animals (in words)” value with warm-blooded animals is “high toxicity to warm-blooded animals”.
On to `CCOC(=O)CN(CCCOC)SN(C)C(=O)Oc1cccc2c1OC(C)(C)C2` [Example 6], for which, in data set [2], the mortality at 125 ppm came out at 55%, the mortality at 250 ppm was found to be 70%, the mortality at 500 ppm was 80% and the mortality at 1000 ppm is 90%. In data set [3], the mortality at 200 ppm was found to be 70%, the mortality at 400 ppm was found to be 95% and the mortality at 800 ppm is 100%.
As for `COCCCN(CCC(=O)OC)SN(C)C(=O)ON=C(C)SC` [Example 16], in data set [2] (setting [5]), the mortality at 125 ppm is 100%. For the same compound, the mortality at 250 ppm in data set [2] (setting [6]) amounted to 100%. Moreover, the mortality at 500 ppm in data set [2] (setting [7]) was 100%. Besides, the mortality at 1000 ppm in data set [2] (setting [8]) was determined as 100%. Further, the mortality at 200 ppm in data set [3] (setting [9]) came to 90%. The mortality at 400 ppm in data set [3] (setting [10]) worked out at 100%. Further, the mortality at 800 ppm in data set [3] (setting [11]) was determined as 100%.
`COC(=O)CCN(CCOC1CCCCC1)SN(C)C(=O)ON=C(C)SC` [Example 22]: in data set [2] (setting [5]), the mortality at 125 ppm came to 90%. Besides, in data set [2] (setting [6]), the mortality at 250 ppm came to 100%. Further, the mortality at 500 ppm in data set [2] (setting [7]) came to 100%. Besides, the mortality at 1000 ppm in data set [2] (setting [8]) worked out at 100%. Besides, the mortality at 200 ppm in data set [3] (setting [9]) came out at 80%. In data set [3] (setting [10]), the mortality at 400 ppm came to 95%. In addition, the mortality at 800 ppm in data set [3] (setting [11]) worked out at 100%.
On to `CCOCCN(CCC(=O)OC)SN(C)C(=O)Oc1cccc2c1OC(C)(C)C2` [Example 8], for which, in data set [2], the mortality at 125 ppm is 40%, the mortality at 250 ppm came to 60%, the mortality at 500 ppm was found to be 80% and the mortality at 1000 ppm worked out at 90%. In data set [3], the mortality at 200 ppm turned out to be 75%, the mortality at 400 ppm turned out to be 90% and the mortality at 800 ppm is 100%.
As to `COCCCN(CCC(=O)OC)SN(C)C(=O)Oc1cccc2c1OC(C)(C)C2` [Example 1, 2,3-dihydro-2,2-dimethylbenzofuran-7-yl N-[N-(3-methoxypropyl)-N-methoxycarbonylethylaminosulfenyl]N-methyl carbamate], in data set [2], the mortality at 125 ppm stood at 40%, the mortality at 250 ppm is 65%, the mortality at 500 ppm came to 80% and the mortality at 1000 ppm turned out to be 90%. In data set [3], this compound came in with a mortality at 200 ppm of 70%, a mortality at 400 ppm of 90% and a mortality at 800 ppm of 100%.
As for `CNC(=O)Oc1cccc2c1OC(C)(C)C2` [Control 1, 2,3dihydro-2,2-dimethylbenzofuran-7-yl-N--methylcarbamate], the “toxicity to warm-blooded animals (in words)” value in the data set with warm-blooded animals is listed as “high toxicity to warm-blooded animals”. In addition, the “insecticidal activity (in words)” value in data set [4] is recorded as “high insecticidal activity”.

These data come from US4540708A, “Sulfenyl carbamate derivatives and insecticidal compositions containing the same” (priority 1982, dated 1985).
